Laboratory results: patent publication US5847108A, “Clathrate of isoflavone derivatives and edible composition comprising the same” (Fujicco Co., Ltd., priority 1996, dated 1998)

Tests used:
[1] = Serum (blood) level of isoflavone derivatives after oral administration to ovariectomized rats; set-up: species or system Sprague-Dawley rats; conditions: in vivo
Procedure: (§1) To obtain postmenopausal osteoporosis model, eighty-day-old Sprague-Dawley rats, on day 10 after ovariectomy, was grown for 28 days feeding with calcium deficient diet (Ca: 0.004%, P: 0.3%), with one group consisting of 5 to 6 rats. During the time the rats were growing, an isoflavone derivative, or a β-cyclodextrin clathrate thereof (see Table 3), was administered orally in the form of a solution or a suspension in 1% aqueous hydroxypropylcellulose. On the day before the final administration, urine was collected for 24 hours. Blood was collected from postcava at 4 hours after the final administration, and a femur was removed. The collected blood was separated to obtain serum according to a standard method. In order to determine the amounts of isoflavone derivatives in the obtained samples of urine and serum, the samples were subjected to the reactions for 2 hours at 37° C. through adding thereto 50 Units/ml of sulfatase (EC3.1.6.1; SIGMA CHEMICAL Co. LTD.) in 1 ml of acetate buffer (0.1M, pH 4.5). Then 1 ml of acetate buffer (0.1M, pH 4.5) containing β-glucuronidase (200 Units/ml, EC 3.2.1.31, WAKO JYUNYAKU KOGYO KABUSIKI KAISYA) was added to the mixture and incubated for 2 hours at 37° C. After treating it with Sep-Pak (Waters), the incubated solution was analyzed using HPLC as described in the above clathrate formation test. Concentration of each isoflavone derivatives in the sample was determined based on the values for daidzein, genistein, or glycitein as a standard. Bone density of femur was calculated based on wet weight and volume measured by pycnometer.

[2] = test system: postmenopausal osteoporosis model (femur); assay: Bone density of femur in postmenopausal osteoporosis model (ovariectomized rats, calcium deficient diet); type: in vivo, Sprague-Dawley rats; conditions: ovariectomized rat femur, oral, 28 days; Means ± S.D.; a: vs nonclathrated, b: vs control (1%)
Procedure: as §1

[3] = 24 h urinary excretion of isoflavone derivatives after oral administration to ovariectomized rats; set-up: species or system Sprague-Dawley rats; conditions: in vivo, rat, 24 h urine on day before final administration, Means ± S.D., a: significantly different from nonclathrated (1%), read-out: Urinary Excretion Rate
Procedure: as §1, with “Then 1 ml of acetate buffer (0.1M, pH 4.5) containing β-glucuronidase (200 Units/ml, EC 3.2.1.31, WAKO JYUNYAKU KOGYO KABUSIKI KAISYA) was added to the mixture and incubated for 2 hours at 37° C.” left out

[4] = in words, dietary intake; cited from earlier work

Row | SMILES | concentration at 4 h ([1]; rat) [ng/mL] | Bone Density [2] [g/mL] | concentration at 4 h ([1]; heading: Blood Level, rat serum, oral, 4 hours after the final administration, Means ± S.D., a: significantly different from nonclathrated (1%)) [ng/mL] | dose excreted at 24 h [3] [%] | urinary excretion in Japanese female relative to female in Boston or Helsinki [4]
1 | COc1cc2c(=O)c(-c3ccc(O)cc3)coc2cc1O [glycitein] | 630 ± 50 | 1.493 ± 0.013 | – | – | –
2 | O=c1c(-c2ccc(O)cc2)coc2cc(O[C@@H]3O[C@H](CO)[C@@H](O)[C@H](O)[C@H]3O)ccc12 [daidzin] | – | 1.496 ± 0.015 | 840 ± 30 | 9.3 ± 0.7 | ten times greater
3 | COc1cc2c(=O)c(-c3ccc(O)cc3)coc2cc1O[C@@H]1O[C@H](COC(=O)CC(=O)O)[C@@H](O)[C@H](O)[C@H]1O [6"-O-malonylglycitin] | 780 ± 50 | 1.489 ± 0.012 | – | – | –
4 | O=C(O)CCC(=O)OC[C@H]1O[C@@H](Oc2ccc3c(=O)c(-c4ccc(O)cc4)coc3c2)[C@H](O)[C@@H](O)[C@@H]1O [6"-O-succinyldaidzin] | 860 ± 30 | 1.490 ± 0.030 | – | – | –
5 | O=c1c(-c2ccc(O)cc2)coc2cc(O)cc(O)c12 [genistein] | 680 ± 30 | 1.492 ± 0.012 | – | – | –
6 | COc1cc2c(=O)c(-c3ccc(O)cc3)coc2cc1O[C@@H]1O[C@H](COC(=O)CCC(=O)O)[C@@H](O)[C@H](O)[C@H]1O [6"-O-succinylglycitin] | 790 ± 30 | 1.477 ± 0.032 | – | – | –
7 | O=c1c(-c2ccc(O)cc2)coc2cc(O)ccc12 [daidzein] | 650 ± 40 | 1.489 ± 0.013 | – | – | –

Now from value to compound, other results behind:

Row | concentration at 4 h ([1]; rat) [ng/mL] | SMILES | Bone Density [2] [g/mL] | concentration at 4 h ([1]; heading: Blood Level, rat serum, oral, 4 hours after the final administration, Means ± S.D., a: significantly different from nonclathrated (1%)) [ng/mL] | dose excreted at 24 h [3] [%] | urinary excretion in Japanese female relative to female in Boston or Helsinki [4]
8 | 720 ± 60 | COc1cc2c(=O)c(-c3ccc(O)cc3)coc2cc1O[C@@H]1O[C@H](COC(C)=O)[C@@H](O)[C@H](O)[C@H]1O [6"-O-acetylglycitin] | 1.489 ± 0.012 | – | – | –
9 | 820 ± 50 | O=C(O)CCC(=O)OC[C@H]1O[C@@H](Oc2cc(O)c3c(=O)c(-c4ccc(O)cc4)coc3c2)[C@H](O)[C@@H](O)[C@@H]1O [6"-O-succinylgenistin] | 1.486 ± 0.028 | – | – | –
10 | 780 ± 70 | CC(=O)OC[C@H]1O[C@@H](Oc2cc(O)c3c(=O)c(-c4ccc(O)cc4)coc3c2)[C@H](O)[C@@H](O)[C@@H]1O [6"-O-acetylgenistin] | 1.494 ± 0.028 | – | – | –
11 | 780 ± 40 | O=c1c(-c2ccc(O)cc2)coc2cc(O[C@@H]3O[C@H](CO)[C@@H](O)[C@H](O)[C@H]3O)cc(O)c12 [genistin] | 1.502 ± 0.007 | – | – | –
12 | 850 ± 50 | O=C(O)CC(=O)OC[C@H]1O[C@@H](Oc2ccc3c(=O)c(-c4ccc(O)cc4)coc3c2)[C@H](O)[C@@H](O)[C@@H]1O [6"-O-malonyldaidzin] | 1.488 ± 0.012 | – | – | –
13 | 750 ± 60 | COc1cc2c(=O)c(-c3ccc(O)cc3)coc2cc1O[C@@H]1O[C@H](CO)[C@@H](O)[C@H](O)[C@H]1O [glycitin] | 1.494 ± 0.015 | – | – | –
14 | 740 ± 50 | CC(=O)OC[C@H]1O[C@@H](Oc2ccc3c(=O)c(-c4ccc(O)cc4)coc3c2)[C@H](O)[C@@H](O)[C@@H]1O [6"-O-acetyldaidzin] | 1.492 ± 0.014 | – | – | –
15 | 840 ± 40 | O=C(O)CC(=O)OC[C@H]1O[C@@H](Oc2cc(O)c3c(=O)c(-c4ccc(O)cc4)coc3c2)[C@H](O)[C@@H](O)[C@@H]1O [6"-O-malonylgenistin] | 1.494 ± 0.013 | – | – | –
